According to patent publication US6642227B2, “Inhibitors of c-Jun N-terminal kinases (JNK) and other protein kinases” (Vertex Pharmaceuticals Incorporated, priority 2001, dated 2003):

Key:
[1] = target: human Lck kinase (UniProt P06239); assay: Lck inhibition assay (A: radioactivity-based or B: spectrophotometric coupled-enzyme assay); assay type: biochemical; details: read-out: Lck Activity (Ki rating)
Description: The compounds were evaluated as inhibitors of human Lck kinase using either a radioactivity-based assay or spectrophotometric assay.
The compounds were assayed as inhibitors of full length bovine thymus Lck kinase (from Upstate Biotechnology, cat. no. 14-106) expressed and purified from baculo viral cells. Lck kinase activity was monitored by following the incorporation of ^33p from ATP into the tyrosine of a random poly Glu-Tyr polymer substrate of composition, Glu:Tyr=4:1 (Sigma, cat. no. P-0275). The following were the final concentrations of the assay components: 0.025 M HEPES, pH 7.6, 10 mM MgCl2, 2 mM DTT, 0.25 mg/ml BSA, 10 μM ATP (1-2 μCi ^33P-ATP per reaction), 5 mg/ml poly Glu-Tyr, and 1-2 units of recombinant human […] kinase. In a typical assay, all the reaction components with the exception of ATP were pre-mixed and aliquoted into assay plate wells. Inhibitors dissolved in DMSO were added to the wells to give a final DMSO concentration of 2.5%. The assay plate was incubated at 30 C. for 10 min before initiating the reaction with ^33P-ATP. After 20 min of reaction, the reactions were quenched with 150 μl of 10% trichloroacetic acid (TCA) containing 20 mM Na3PO4. The quenched samples were then transferred to a 96-well filter plate (Whatman, UNI-Filter GF/F Glass Fiber Filter, cat no. 7700-3310) installed on a filter plate vacuum manifold. Filter plates were washed four times with 10% TCA containing 20 mM Na3PO4 and then 4 times with methanol. 200 μl of scintillation fluid was then added to each well. The plates were sealed and the amount of radioactivity associated with the filters was quantified on a TopCount scintillation counter. The radioactivity incorporated was plotted as a function of the inhibitor concentration. The data was fitted to a competitive inhibition kinetics model to get the Ki for the compound.
(§1) The ADP produced from ATP by the human recombinant Lck kinase-catalyzed phosphorylation of poly Glu-Tyr substrate was quanitified using a coupled enzyme assay (Fox et al (1998) Protein Sci 7, 2249). In this assay one molecule of NADH is oxidised to NAD for every molecule of ADP produced in the kinase reaction. The disappearance of NADH can be conveniently followed at 340 nm.
(§2) The following were the final concentrations of the assay components: 0.025 M HEPES, pH 7.6, 10 mM MgCl2, 2 mM DTT, 5 mg/ml poly Glu-Tyr, and 50 nM of recombinant human Lck kinase. Final concentrations of the components of the coupled enzyme system were 2.5 mM phosphoenolpyruvate, 200 μM NADH, 30 μg/ml pyruvate kinase and 10 μg/ml lactate dehydrogenase.
(§3) In a typical assay, all the reaction components with the exception of ATP were pre-mixed and aliquoted into assay plate wells. Inhibitors dissolved in DMSO were added to the wells to give a final DMSO concentration of 2.5%. The assay plate was incubated at 30° C. for 10 min before initiating the reaction with 150 μM ATP. The absorbance change at 340 nm with time, the rate of the reaction, was monitored on a molecular devices plate reader. The data of rate as a function of the inhibitor concentration was fitted to competitive inhibition kinetics model to get the Ki for the compound.

[2] = target: T1, human Src kinase (Homo sapiens, UniProt P12931); assay: Src inhibition assay (A: radioactivity-based or B: spectrophotometric coupled-enzyme assay); assay type: biochemical; details: assay A or B not specified; read-out: Src Activity (Ki class A-C)
T1 construct: full length recombinant human Src kinase; purchased Upstate Biotechnology 14-117; host or cells: baculovirus-infected cells
Description: The compounds were evaluated as inhibitors of human Src kinase using either a radioactivity-based assay or spectrophotometric assay.
The compounds were assayed as inhibitors of full length recombinant human Src kinase (from Upstate Biotechnology, cat. no. 14-117) expressed and purified from baculo viral cells. Src kinase activity was monitored by following the incorporation of ^33p from ATP into the tyrosine of a random poly Glu-Tyr polymer substrate of composition, Glu:Tyr=4:1 (Sigma, cat. no. P-0275). The following were the final concentrations of the assay components: 0.05 M HEPES, pH 7.6, 10 mM MgCl2, 2 mM DTT, 0.25 mg/ml BSA, 10 μM ATP (1-2 uCi ^33P-ATP per reaction), 5 mg/ml poly Glu-Tyr, and 1-2 units of recombinant human Src kinase. In a typical assay, all the reaction components with the exception of ATP were pre-mixed and aliquoted into assay plate wells.
Inhibitors dissolved in DMSO were added to the wells to give a final DMSO concentration of 2.5%. The assay plate was incubated at 30° C. for 10 min before initiating the reaction with ^33P-ATP. After 20 min of reaction, the reactions were quenched with 150 μl of 10% trichloroacetic acid (TCA) containing 20 mM Na3PO4. The quenched samples were then transferred to a 96-well filter plate (Whatman, UNI-Filter GF/F Glass Fiber Filter, cat no. 7700-3310) installed on a filter plate vacuum manifold. Filter plates were washed four times with 10% TCA containing 20 mM Na3PO4 and then 4 times with methanol. 200 μl of scintillation fluid was then added to each well. The plates were sealed and the amount of radioactivity associated with the filters was quantified on a TopCount scintillation counter. The radioactivity incorporated was plotted as a function of the inhibitor concentration. The data was fitted to a competitive inhibition kinetics model to get the Ki for the compound.
as §1, with “Src” for “Lck”
as §2, with “DTT, 0.25” for “DTT, 5”, “and 25” for “and 50”, “human Src” for “human Lck”
as §3, with “30” for “30°”, “100” for “150”, “compettive” for “competitive”

T1 sequence (P12931 whole entry): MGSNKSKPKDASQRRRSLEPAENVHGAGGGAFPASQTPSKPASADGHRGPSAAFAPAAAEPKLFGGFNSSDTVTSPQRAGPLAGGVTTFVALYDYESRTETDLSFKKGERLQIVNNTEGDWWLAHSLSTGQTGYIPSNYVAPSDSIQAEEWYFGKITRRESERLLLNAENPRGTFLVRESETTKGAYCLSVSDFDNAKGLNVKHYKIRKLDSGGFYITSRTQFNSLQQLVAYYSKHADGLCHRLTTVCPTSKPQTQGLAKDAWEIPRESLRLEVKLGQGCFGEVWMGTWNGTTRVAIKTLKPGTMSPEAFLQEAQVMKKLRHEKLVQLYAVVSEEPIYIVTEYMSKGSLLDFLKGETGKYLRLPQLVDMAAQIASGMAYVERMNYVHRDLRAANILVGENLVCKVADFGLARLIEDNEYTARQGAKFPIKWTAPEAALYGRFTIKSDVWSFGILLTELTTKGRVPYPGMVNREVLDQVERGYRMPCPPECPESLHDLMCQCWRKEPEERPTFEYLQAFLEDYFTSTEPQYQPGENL

Row | Ki [1] | Ki [2] | SMILES
1 | < 100 nM | < 100 nM | N#Cc1c(O)sc(-c2ccnc(Nc3cccc(OCc4ccccc4)c3)n2)c1-c1ccccc1 [IIa-42, 5-[2-(3-Benzyloxy-phenylamino)-pyrimidin-4-yl]-2-hydroxy-4-phenyl-thiophene-3-carbonitrile]
2 | 100 to 1000 nM | > 1000 nM | CCNc1sc(-c2ccnc(Nc3cccc(OC)c3)n2)c(-c2ccccc2)c1C(=O)OCC [IIa-90, 2-Ethylamino-5-[2-(3-methoxy-phenylamino)-pyrimidin-4-yl]-4-phenyl-thiophene-3-carboxylic acid ethyl ester]
3 | < 100 nM | < 100 nM | COCCNCCCOc1cccc(Nc2ncc(C)c(-c3sc(SC)c(C#N)c3-c3cccnc3)n2)c1 [VI-20]
4 | < 100 nM | < 100 nM | CSc1sc(-c2nc(Nc3cccc(OCCCN4CCC[C@H]4CO)c3)ncc2C)c(-c2cccnc2)c1C#N [VI-24]
5 | 100 to 1000 nM | 100 to 1000 nM | CSc1sc(-c2nc(Nc3cccc(OCCCN4CCOCC4)c3)ncc2C)c(-c2cccnc2)c1C#N [VI-117]
6 | < 100 nM | 100 to 1000 nM | CSc1sc(-c2nc(Nc3cccc(OCCCN4CCNCC4)c3)ncc2C)c(-c2cccnc2)c1C#N [VI-118]
7 | < 100 nM | 100 to 1000 nM | CSc1sc(-c2nc(Nc3cccc(OCCNCCO)c3)ncc2C)c(-c2cccnc2)c1C#N [VI-119]
8 | < 100 nM | < 100 nM | CSc1sc(-c2nc(Nc3cccc(OCCN4CCC(CO)CC4)c3)ncc2C)c(-c2cccnc2)c1C#N [VI-120]
9 | 100 to 1000 nM | – | CSc1sc(-c2ccnc(Nc3cccc(OCCCN4CCNCC4)c3)n2)c(-c2cccc(OCc3ccccc3)c2)c1C#N [VI-125]
10 | 100 to 1000 nM | – | CSc1sc(-c2ccnc(Nc3cccc(OCCCN4CCN(CCO)CC4)c3)n2)c(-c2cccc(OCc3ccccc3)c2)c1C#N [VI-126]
11 | 100 to 1000 nM | – | CSc1sc(-c2ccnc(Nc3cccc(OCCCN4CCC(CO)CC4)c3)n2)c(-c2cccc(OCc3ccccc3)c2)c1C#N [VI-127]
12 | < 100 nM | – | CSc1sc(-c2ccnc(Nc3cccc(OCCCN4CCN(CCO)CC4)c3)n2)c(-c2cccc(O)c2)c1C#N [VI-128]
13 | < 100 nM | – | CSc1sc(-c2ccnc(Nc3cccc(OCCCN4CCC(CO)CC4)c3)n2)c(-c2cccc(O)c2)c1C#N [VI-129]
14 | < 100 nM | < 100 nM | CSc1sc(-c2ccnc(Nc3cccc(NC(=O)CCCNC(C)=O)c3)n2)c(-c2cccnc2)c1C#N [VI-130]
15 | < 100 nM | – | CSc1sc(-c2ccnc(Nc3cccc(NC(=O)CCN4CCCCC4)c3)n2)c(-c2cccnc2)c1C#N [VI-131]
16 | < 100 nM | 100 to 1000 nM | CSc1sc(-c2ccnc(Nc3cccc(OCCCNCCO)c3)n2)c(-c2cccc(OCc3ccccc3)c2)c1C#N [VI-132]
17 | < 100 nM | < 100 nM | CSc1sc(-c2ccnc(Nc3cccc(OCCCNCCCO)c3)n2)c(-c2cccc(OCc3ccccc3)c2)c1C#N [VI-133]
18 | < 100 nM | < 100 nM | CSc1sc(-c2ccnc(Nc3cccc(OCCCNCCO)c3)n2)c(-c2cccc(O)c2)c1C#N [VI-134]
19 | < 100 nM | < 100 nM | CSc1sc(-c2ccnc(Nc3cccc(OCCCNCCCO)c3)n2)c(-c2cccc(O)c2)c1C#N [VI-135]
20 | < 100 nM | – | CSc1sc(-c2ccnc(Nc3cccc(NC(=O)Cc4ccccn4)c3)n2)c(-c2cccnc2)c1C#N [VI-136]
21 | < 100 nM | – | CSc1sc(-c2ccnc(Nc3cccc(NC(=O)Cc4csc(N)n4)c3)n2)c(-c2cccnc2)c1C#N [VI-137]
22 | < 100 nM | – | CSc1sc(-c2ccnc(Nc3cccc(NC(=O)CC4CC4)c3)n2)c(-c2cccnc2)c1C#N [VI-138, 3-cyano-4-(3-pyridyl)-5-[2-(3-N-cyclopropylacetamido)-aminophenylamino]-pyrimidin-4-yl-2-thiomethyl thiophene]
23 | < 100 nM | – | CSc1sc(-c2ccnc(Nc3cccc(NC(=O)CCC4NC(=O)CNC4=O)c3)n2)c(-c2cccnc2)c1C#N (stereo not drawn) [VI-139]
24 | < 100 nM | – | CCN(CC)CCC(=O)Nc1cccc(Nc2nccc(-c3sc(SC)c(C#N)c3-c3cccnc3)n2)c1 [VI-140]
25 | < 100 nM | < 100 nM | CCCCS(=O)(=O)Nc1cccc(Nc2nccc(-c3sc(SC)c(C#N)c3-c3cccnc3)n2)c1 [VI-141]
